# Literature values as cited in patent US12336993B2, “Therapeutic benefit of suboptimally administered chemical compounds” (priority 2013, dated 2025).
# Columns and labels:
# [1] = molecular target: glycogen synthase kinase-33 (GSK-30) (Homo sapiens, UniProt P49841)
# [2] = tested on: chronic lymphocytic leukemia; conditions: literature reports (Kennedy & Theologides 1961; Kennedy et al. 1999)
# DNA = conditions: guanine-N7 alkylation of DNA
# Hodgkin's lymphoma = conditions: literature reports (Gold et al. 1970; Kennedy et al. 1999)
# non-Hodgkin's lymphoma = conditions: literature report (Kennedy et al. 1999)
# glycogen synthase kinase-33 (GSK-30), sequence (P49841 whole entry): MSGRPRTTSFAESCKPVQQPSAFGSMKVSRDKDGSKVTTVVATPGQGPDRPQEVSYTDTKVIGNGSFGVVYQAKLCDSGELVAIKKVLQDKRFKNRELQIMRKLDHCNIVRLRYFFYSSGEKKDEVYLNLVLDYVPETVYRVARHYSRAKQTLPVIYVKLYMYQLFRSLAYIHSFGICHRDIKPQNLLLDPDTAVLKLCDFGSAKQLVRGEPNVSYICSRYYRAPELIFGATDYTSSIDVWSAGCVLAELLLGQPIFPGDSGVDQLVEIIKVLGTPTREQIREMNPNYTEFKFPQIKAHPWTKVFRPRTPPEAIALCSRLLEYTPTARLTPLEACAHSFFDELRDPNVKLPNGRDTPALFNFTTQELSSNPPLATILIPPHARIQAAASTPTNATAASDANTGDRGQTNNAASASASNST
SMILES,concentration at which inhibition of GSK is promoted [1],activity in chronic lymphocytic leukemia [2],sequence preferences to alkylate (DNA),activity in Hodgkin's lymphoma (Hodgkin's lymphoma),activity in non-Hodgkin's lymphoma (non-Hodgkin's lymphoma)
CN1C(=O)/C(=C2/C(=O)Nc3ccccc32)c2ccccc21 [meisoindigo],5 to 50 nM,–,–,–,–
"O=c1[nH]cc(N(CCCl)CCCl)c(=O)[nH]1 [uracil mustard, 5-[bis(2-chloroethyl)amino]-1H-pyrimidine-2,4-dione]",–,active,5′-YGC-3′,active,active
